Reference: US20170166555A1, “FUNCTIONALISED AND SUBSTITUTED INDOLES AS ANTI-CANCER AGENTS” (Novogen Limited, priority 2013, published 2017)
Read-outs that look alike come from different tables or passages of the source.

Tests used:
[1] = system: SK-N-SH neuroblastoma cells; experiment: Anti-proliferative assay, cell-titre luminescent reagent, 72 h (GVK-BIO); assay type: cell-based
Method in brief: (§1)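 Seed at predetermined density, 24 h attach (37 °C, 5% CO2). Dose 4-point (30–0.03 μM, 10-fold) → IC50 by linear regression on semi-log plot; or 6-point (30–0.1 μM) → EC50 by sigmoidal variable-slope fit. Reagent 30 min, luminescence vs untreated control.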

[2] = system: CaCo2 colorectal cancer cells; experiment: as above; assay type: cell-based
Method in brief: as §1

[3] = system: DU145 prostate cancer cells; experiment: as above; assay type: cell-based
Method in brief: as §1

[4] = system: MDA-MB-231 triple negative breast cancer cells; experiment: as above; assay type: cell-based
Method in brief: as §1

[5] = system: A549 non-small cell lung carcinoma cells; experiment: as above; assay type: cell-based; settings: read-out: IC50/μM Lung (NSLC) A549
Method in brief: as §1

[6] = system: PC3 prostate cancer cells; experiment: as above; assay type: cell-based
Method in brief: as §1

[7] = system: SK-Mel-28 melanoma cells; experiment: as above; assay type: cell-based
Method in brief: as §1

[8] = system: neuroblastoma (SH-EP) cells; experiment: Cell viability assay (MTT, 48 hr); assay type: cell-based; settings: 48 hr treatment, read-out: IC50 (μM) SHEP
Method: (§2) Cell viability assays were also conducted to assess the anti-proliferative effects of the anti-tropomyosin compounds 4001-4015. Briefly, cells (1×10^3/well) were plated (96-well) and treated (48 hr) with anti-tropomyosin drug and viability measured using 3-(4,5-dimethylthiazol-2-yl)-2,5-diphenylterazolium bromide MTT. Cell viability was normalized to control (vehicle alone) and dose-response curves, and half maximal effective concentration (EC50) values were determined using Graph Pad Prism 5 (nonlinear regression sigmoidal dose-response variable slope).

[9] = system: melanoma (SK-Mel-28) cells; experiment: Cell viability assay (MTT, 48 hr); assay type: cell-based; settings: Homo sapiens, 48 hr treatment, read-out: IC50 (μM) SKMEL28
Method: as §2

[10] = system: non-transfected and Tm5NM1 stably transfected MEFs; experiment: MTT viability in non-transfected versus Tm5NM1 stably transfected MEFs; assay type: cell-based, mouse; settings: 48 hr, FIG. 1
Method: FIG. 1: Activity of selected compounds against Tm5NM1/2 transfected mouse embryonic fibroblasts versus non-transfected MEFs.
Compounds 4001, 4010, 4014, 4008 and 4015 were then screened against non-transfected and Tm5NM1 stably transfected MEFs. Briefly, MEFs were transfected with pEYFP-C1/Tm5NM1 constructs using the Amaxa nucleofector apparatus (program A-023) and MEF nucleofector kit 1 (Lonza) according to the manufacturer's instructions. Cell viability assays were also conducted to assess the anti-proliferative effects of the anti-tropomyosin compounds. Briefly, cells (1×10^3/well) were plated (96-well) and treated (48 hr) with anti-tropomyosin compounds and viability measured using 3-(4,5-dimethylthiazol-2-yl)-2, 5-diphenylterazolium bromide MTT. Cell viability was normalized to control (vehicle alone) and dose-response curves, and half maximal effective concentration (EC50) values were determined using Graph Pad Prism 5 (nonlinear regression sigmoidal dose-response variable slope).

[11] = Homo sapiens, SK-N-SH, 30, 3, 0.3 and 0.03 μM, linear regression (Tables 2-4)
[12] = Homo sapiens, Caco-2, 72 h, 30, 3, 0.3 and 0.03 μM, linear regression (Tables 2-4)
[13] = Homo sapiens, DU-145, 72 h, 30, 3, 0.3 and 0.03 μM, linear regression (Tables 2-4)
[14] = Homo sapiens, MDA-MB-231, 72 h, 30, 3, 0.3 and 0.03 μM, linear regression (Tables 2-4)
[15] = Homo sapiens, A549, 72 h, 30, 3, 0.3 and 0.03 μM, linear regression (Tables 2-4)
[16] = 30, 3, 0.3 and 0.03 μM, linear regression (Tables 2-4)
[17] = Homo sapiens, SK-MEL-28, 72 h, 30, 3, 0.3 and 0.03 μM, linear regression (Tables 2-4)
[18] = Homo sapiens, SK-N-SH, 30, 10, 3, 1, 0.3 and 0.1 μM, nonlinear regression (Table 5)
[19] = Homo sapiens, Caco-2, 72 h, 30, 10, 3, 1, 0.3 and 0.1 μM, nonlinear regression (Table 5)
[20] = Homo sapiens, DU-145, 72 h, 30, 10, 3, 1, 0.3 and 0.1 μM, nonlinear regression (Table 5)
[21] = Homo sapiens, MDA-MB-231, 72 h, 30, 10, 3, 1, 0.3 and 0.1 μM, nonlinear regression (Table 5)
[22] = Homo sapiens, A549, 72 h, 30, 10, 3, 1, 0.3 and 0.1 μM, nonlinear regression (Table 5)
[23] = 30, 10, 3, 1, 0.3 and 0.1 μM, nonlinear regression (Table 5)
[24] = Homo sapiens, SK-MEL-28, 72 h, 30, 10, 3, 1, 0.3 and 0.1 μM, nonlinear regression (Table 5)

SMILES	IC50 [6, 16] [µM]	IC50 [8] [µM]	IC50 [9] [µM]	IC50 [1, 18] [µM]	IC50 [2, 19] [µM]	IC50 [3, 20] [µM]	IC50 [4, 21] [µM]	IC50 [5, 22] [µM]	IC50 [6, 23] [µM]	IC50 [7, 24] [µM]	other results
CN(C)CCCn1ccc2cc(Cc3cccc(C(=O)Nc4ccccc4)c3)ccc21 [Compound 4008]	4.3	2.7	3.4								IC50 [1, 11]: 9.3 µM; IC50 [2, 12]: 5.8 µM; IC50 [3, 13]: 3.3 µM; IC50 [4, 14]: 3.9 µM; IC50 [5, 15]: 3.8 µM; IC50 [7, 17]: 3.3 µM
CN(C)CCCn1ccc2cc(Nc3cccc(C(=O)Nc4ccccc4)c3)ccc21 [Compound 4013, 3-((1-(3-(dimethylamino)propyl)-1H-indol-5-yl)amino)-N-phenylbenzamide]	> 30	14.5	15.8								IC50 [1, 11]: 4.2 µM; IC50 [2, 12]: > 30 µM; IC50 [3, 13]: > 30 µM; IC50 [4, 14]: 3.7 µM; IC50 [5, 15]: 7.6 µM; IC50 [7, 17]: 9.2 µM
Cc1c(C)n(CCCN(C)C)c2ccc(-c3cnn(Cc4ccccc4)c3)cc12 [Compound 4009, 3-(5-(1-benzyl-1H-pyrazol-4-yl)-2,3-dimethyl-1H-indol-1-yl)-N,N-dimethylpropan-1-amine]		3	5.4								
CN(C)CCCn1ccc2cc(-c3cnn(CC4CCN(C)CC4)c3)ccc21 [Compound 4005, N,N-dimethyl-3-(5-(1-((1-methylpiperidin-4-yl)methyl)-1H-pyrazol-4-yl)-1H-indol-1-yl)propan-1-amine]		5.4	53.8								
CN(C)CCCn1ccc2cc(-c3cnn(CC4CCOCC4)c3)ccc21 [Compound 4006, N,N-dimethyl-3-(5-(1-((tetrahydro-2H-pyran-4-yl)methyl)-1H-pyrazol-4-yl)-1H-indol-1-yl)propan-1-amine]		107									
Cc1c(C)n(CCCN(C)C)c2ccc(Nc3cccc(C(=O)Nc4ccccc4)c3)cc12 [Compound 4011, 3-((1-(3-(dimethylamino)propyl)-2,3-dimethyl-1H-indol-5-yl)amino)-N-phenylbenzamide]	4.3	8.7	9.7								IC50 [1, 11]: 2.5 µM; IC50 [2, 12]: 2.8 µM; IC50 [3, 13]: 3.3 µM; IC50 [4, 14]: 2.5 µM; IC50 [5, 15]: 3 µM; IC50 [7, 17]: 6.1 µM
CN(C)CCCn1ccc2cc(Oc3cccc(C(=O)Nc4ccccc4)c3)ccc21 [Compound 4014, 3-((1-(3-(dimethylamino)propyl)-1H-indol-5-yl)oxy)-N-phenylbenzamide]	3.7	4.3	4								IC50 [1, 11]: 3 µM; IC50 [2, 12]: 3.9 µM; IC50 [3, 13]: 3.6 µM; IC50 [4, 14]: 2.5 µM; IC50 [5, 15]: 2.9 µM; IC50 [7, 17]: 3.2 µM; Selectivity: toxicity against primary MEFs versus MEFs stably transfected with Tm5NM1/2 [10]: less toxicity noted against primary mouse embryonic fibroblasts (MEFs) compared with MEFs stably transfected with Tm5NM1/2
CN(C)CCCn1ccc2cc(Oc3ccc(C(=O)Nc4ccccc4)cc3)ccc21 [Compound 4002, 4-((1-(3-(dimethylamino)propyl)-1H-indol-5-yl)oxy)-N-phenylbenzamide]		9.24	7.04	3.2	13.1	37.4	15.7	16.3	12.4	9.3	
CC(c1ccccc1)n1cc(-c2ccc3c(ccn3CCCN(C)C)c2)cn1 (stereo not shown) [Compound 4004, N,N-dimethyl-3-(5-(1-(1-phenylethyl)-1H-pyrazol-4-yl)-1H-indol-1-yl)propan-1-amine]		6.7	9.8								
Cc1c(C)n(CCCN2CCN(C)CC2)c2ccc(CN3CCN(CCc4ccccc4)CC3)cc12 [Compound 4117, 2,3-dimethyl-1-(3-(4-methylpiperazin-1-yl)propyl)-5-((4-phenethylpiperazin-1-yl)methyl)-1H-indole]				4.6	8.2	5.6	3.5	8.6	10.2	2	
Cc1c(C)n(CCCN2CCN(C)CC2)c2ccc(CN3CCN(CCc4cccc(O)c4)CC3)cc12 [Compound 4116, 3-(2-(4-((2,3-dimethyl-1-(3-(4-methylpiperazin-1-yl)propyl)-1H-indol-5-yl)methyl)piperazin-1-yl)ethyl)phenol]				4.6	6	7.6	4.1	10.1	13.2	3.2	
Cc1c(C)n(CCCN(C)C)c2ccc(Cc3ccc(C(=O)Nc4ccc5c(c4)OCO5)cc3)cc12 [Compound 4084, N-(benzo[d][1,3]dioxol-5-yl)-4-((1-(3-(dimethylamino)propyl)-2,3-dimethyl-1H-indol-5-yl)methyl)benzamide]				10.6	7.1	4.8	6.5	6	3.5	5.5	
CN(C)CCCn1ccc2cc(-c3cnn(Cc4ccccc4)c3)ccc21 [Compound 4003, 3-(5-(1-benzyl-1H-pyrazol-4-yl)-1H-indol-1-yl)-N,N-dimethylpropan-1-amine]			25.9								
Cc1c(C)n(CCCN(C)C)c2ccc(Oc3ccc(C(=O)Nc4ccc5c(c4)OCO5)cc3)cc12 [Compound 4095, N-(benzo[d][1,3]dioxol-5-yl)-4-((1-(3-(dimethylamino)propyl)-2,3-dimethyl-1H-indol-5-yl)oxy)benzamide]	1.4										IC50 [1, 11]: 1.5 µM; IC50 [2, 12]: 2.3 µM; IC50 [3, 13]: 1.2 µM; IC50 [4, 14]: 1.6 µM; IC50 [5, 15]: 1 µM; IC50 [7, 17]: 2.3 µM
Cc1c(C)n(CCCN(C)C)c2ccc(C(=O)N3CCN(CCc4ccc(O)cc4)CC3)cc12 [Compound 4119, (1-(3-(dimethylamino)propyl)-2,3-dimethyl-1H-indol-5-yl)(4-(4-hydroxyphenethyl)piperazin-1-yl)methanone]				> 30	> 30	> 30	> 30	> 30	> 30	> 30	
COc1ccc(NC(=O)c2ccc(Oc3ccc4c(c3)c(C)c(C)n4CCCN(C)C)cc2)cc1 [Compound 4094, 4-((1-(3-(dimethylamino)propyl)-2,3-dimethyl-1H-indol-5-yl)oxy)-N-(4-methoxyphenyl)benzamide]				1.8	4.2	2	1.7	2.7	1.5	3.8	
CN(C)CCCn1ccc2cc(Nc3cccc(C(=O)Nc4ccc(F)cc4)c3)ccc21 [Compound 4099, 3-((1-(3-(dimethylamino)propyl)-1H-indol-5-yl)amino)-N-(4-fluorophenyl)benzamide]	4.9										IC50 [1, 16]: 3.9 µM; IC50 [2, 16]: > 30 µM; IC50 [3, 16]: 5.5 µM; IC50 [4, 16]: 3.4 µM; IC50 [5, 16]: 4.1 µM; IC50 [7, 16]: 3.7 µM
